The values that follow come from patent publication US20100081668A1, “POLYMORPHS OF 5--6-CHLORO-1,3-DIHYDRO-2H-INDOL-2-ONE HYDROBROMIDE AND PROCESSES FOR PREPARATION THEREOF” (priority 2006, published 2010).

Counter-ions that a name gives are not always drawn. Like-named read-outs stand apart in the source and are kept apart here.

Data set [1] is described as follows: Exposure of samples to 100% relative humidity at room temperature. In kind it is physicochemical. From the text: The Ziprasidone-hydrobromide Form III (hemihydrate) sample was also stable in these circumstances.
A short description of data set [2]: Thermogravimetric (TG) and differential scanning calorimetric (DSC) investigation during heating. The format is physicochemical. The text has this:
The Ziprasidone-hydrobromide Form III (hemihydrate) sample was also stable in these circumstances. Thermogravimetry (TG) Parameters: [table] Differential Scanning Calorimetry (DSC) Parameters: [table]

A short description of data set [3]: Stability and water uptake from air at normal humidity. In kind it is physicochemical. As to conditions: normal circumstances. From the text: During our experimental work we prepared different ziprasidone hydrobromide compounds and forms. […] In suitable circumstances both the anhydrate and the monohydrate of ziprasidone hydrobromide can be prepared in stable forms, at normal humidity these products can easily be handled, meanwhile their water and active ingredient contents remain constant. The hemihydrate of ziprasidone hydrobromide can also be prepared reproducibly.
1.69 g crystalline 5-{2-[4-(1,2-benzisothiazol-3-yl)-1-piperazinyl]-ethyl}-6-chloro-1,3-dihydro-2H-indol-2-one-hydrobromide anhydrate (ziprasidone-hydrobromide anhydrate) in a form of Ziprasidone-hydrobromide Form II was obtained.

The conditions of data set [4]: 31% relative humidity, after 4 hours; starting water content 0.19%; cited from earlier work.

Regarding `O=C1Cc2cc(CCN3CCN(c4nsc5ccccc45)CC3)c(Cl)cc2N1` [Ziprasidone-hydrobromide Form I, 5-{2-[4-(1,2-benzisothiazol-3-yl)-1-piperazinyl]-ethyl}-6-chloro-1,3-dihydro-2H-indol-2-one-hydrobromide monohydrate], the “stability / change of water content in 100% relative humidity area” value in data set [1] (monohydrate) is recorded as “does not change significantly”. Moreover, in data set [2] (TG and DSC, during heating), the “temperature at which water is lost during heating” value was 40-60 °C. Moreover, in data set [2] (after heating, transforms back to monohydrate of the original crystal structure), the “re-uptake of water after the heat-effect” value is “readily takes back the water”.
Turning to `O=C1Cc2cc(CCN3CCN(c4nsc5ccccc45)CC3)c(Cl)cc2N1` [Ziprasidone-hydrobromide Form II, 5-{2-[4-(1,2-benzisothiazol-3-yl)-1-piperazinyl]-ethyl}-6-chloro-1,3-dihydro-2H-indol-2-one-hydrobromide anhydrate], the “stability / change of water content in 100% relative humidity area” value in data set [1] was “does not change significantly”. Further, the “water absorption from air” value in data set [3] is listed as “does not absorb water from the air”.
Take `O=C1Cc2cc(CCN3CCN(c4nsc5ccccc45)CC3)c(Cl)cc2N1` [Ziprasidone-hydrobromide Form III, 5-{2-[4-(1,2-benzisothiazol-3-yl)-1-piperazinyl]-ethyl}-6-chloro-1,3-dihydro-2H-indol-2-one-hydrobromide hemihydrate]: in data set [1] (hemihydrate), the “stability / change of water content in 100% relative humidity area” value is on record as “stable”.
For the compound `Cl.O=C1Cc2cc(CCN3CCN(c4nsc5ccccc45)CC3)c(Cl)cc2N1` [ziprasidone hydrochloride anhydrate, reference compound], in data set [3], the “water absorption from air” value was “adsorbed water rapidly from air”. The “water content after exposure to humid air” value in data set [4] is reported as 2.55%.
